# Columns and labels:
# [1] = tested on: SARS-CoV-2 (hCoV-19/Egypt/NRC-03/2020); assay: Inhibitory concentration 50 (IC50) determination, virus-induced cytopathic effect, crystal violet; assay type: cell-based; conditions: Severe acute respiratory syndrome coronavirus 2, Vero C1008; Vero-E6 cells infected with hCoV-19/Egypt/NRC-03/2020, 72 h
# Description: In 96-well tissue culture plates, 2.4 × 10^4 Vero-E6 cells were distributed in each well and incubated overnight at a humidified 37 °C incubator under 5%CO2 condition. The cell monolayers were then washed once with 1 × PBS and subjected to virus adsorption (hCoV-19/Egypt/NRC-03/2020 (Accession Number on GSAID: EPI_ISL_430820)) for 1 h at room temperature (RT). More details were provided in Supplementary Information.
# 3.4.Inhibitory concentration 50 (IC50) determination
# In 96-well tissue culture plates, 2.4×10^4 Vero-E6 cells were distributed in each well and incubated overnight at a humidified 37°C incubator under 5%CO2 condition. The cell monolayers were then washed once with 1x PBS and subjected to virus adsorption (hCoV-19/Egypt/NRC-03/2020 (Accession Number on GSAID: EPI_ISL_430820)) for 1 h at room temperature (RT). The cell monolayers were further overlaid with 100μl of DMEM containing varying concentrations of the test compounds. Following incubation at 37°C in 5% CO2 incubator for 72 h, the cells were fixed with 100 μl of 4% paraformaldehyde for 20 min and stained with 0.1% crystal violet in distilled water for 15 min at RT. The crystal violet dye was then dissolved using 100 μl absolute methanol per well and the optical density of the color is measured at 570 nm using Anthos Zenyth 200rt plate reader (Anthos Labtec Instruments, Heerhugowaard, Netherlands). The IC50 of the compound is that required to reduce the virus -induced cytopathic effect (CPE) by 50%, relative to the virus control.
# in vitro = conditions: African green monkey
SMILES,IC50 [1] [mg/L],CC50 at 24 h (in vitro) [mg/L]
"N=c1oc2ccccc2cc1-c1nnc(-c2cccnc2)o1 [Compound 5, 3-(5-(pyridin-3-yl)-1,3,4-oxadiazol-2-yl)-2H-chromen-2-imine]",55,312
"C(=Nc1nnc(-c2cccnc2)s1)c1c[nH]c2ccccc12 [Compound 11, 1-(1H-indol-3-yl)-N-(5-(pyridin-3-yl)-1,3,4-thiadiazol-2-yl)methanimine]",216,552
"Clc1nc2ccccc2cc1C=Nc1nnc(-c2cccnc2)s1 [Compound 12, 1-(2-chloroquinolin-3-yl)-N-(5-(pyridin-3-yl)-1,3,4-thiadiazol-2-yl)methanimine]",120,512
